Data published in US12122761B2, “2-azaspiro[3.4]octane derivatives as M4 agonists” (NOVARTIS AG, priority 2019, dated 2024).
pEC50: −log10 of the molar value.

Assays:
[1] = biological target: T1, human cloned CHRM2 receptor (M2_CHO cells) (Homo sapiens, UniProt P08172); assay: CHRM2 Ca++ Flux Assay (agonist mode, FDSS 7000EX); format: cell-based; conditions: for M2 FDSS PA: Percent Activity measured to EC100 of Carbachol; for pEC50: agonist mode, geometric mean if tested more than once, read-out: M2 FDSS EC50
T1 construct: expressed in transfected cells; host or cells: CHO-K1
T1 sequence (P08172 1-466): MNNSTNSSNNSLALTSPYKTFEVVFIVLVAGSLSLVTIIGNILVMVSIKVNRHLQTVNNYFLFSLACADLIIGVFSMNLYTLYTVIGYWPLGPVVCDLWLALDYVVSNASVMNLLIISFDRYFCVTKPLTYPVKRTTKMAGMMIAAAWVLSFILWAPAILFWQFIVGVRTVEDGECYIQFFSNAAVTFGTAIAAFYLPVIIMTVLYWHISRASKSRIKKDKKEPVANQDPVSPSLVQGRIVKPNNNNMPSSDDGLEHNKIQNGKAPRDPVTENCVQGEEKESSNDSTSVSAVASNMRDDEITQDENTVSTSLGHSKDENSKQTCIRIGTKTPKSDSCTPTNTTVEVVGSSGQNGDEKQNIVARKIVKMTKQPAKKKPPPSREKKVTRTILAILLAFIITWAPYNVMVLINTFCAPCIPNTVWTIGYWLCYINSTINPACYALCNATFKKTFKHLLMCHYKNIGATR
Method in brief: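 Agonist-mode Ca++ flux in CHO-K1 cells stably expressing human CHRM2, dye-loaded, then held 60 min at room temperature in buffer with 20 μM ATP before compound addition; traces read over 3 minutes. Four-parameter fit of triplicate wells; percent activity relative to Carbachol EC100.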

[2] = biological target: T2, human cloned CHRM5 receptor (M5_CHO) (Homo sapiens, UniProt P08912); assay: CHRM5 Ca++ Flux Assay (agonist mode, FDSS 7000EX); format: cell-based; conditions: for M5 FDSS PA: Percent Activity measured to EC100 of Carbachol; for pEC50: agonist mode, geometric mean if tested more than once, read-out: M5 FDSS EC50
T2 construct: expressed in transfected cells; host or cells: CHO (M5_CHO)
T2 sequence (P08912 1-532): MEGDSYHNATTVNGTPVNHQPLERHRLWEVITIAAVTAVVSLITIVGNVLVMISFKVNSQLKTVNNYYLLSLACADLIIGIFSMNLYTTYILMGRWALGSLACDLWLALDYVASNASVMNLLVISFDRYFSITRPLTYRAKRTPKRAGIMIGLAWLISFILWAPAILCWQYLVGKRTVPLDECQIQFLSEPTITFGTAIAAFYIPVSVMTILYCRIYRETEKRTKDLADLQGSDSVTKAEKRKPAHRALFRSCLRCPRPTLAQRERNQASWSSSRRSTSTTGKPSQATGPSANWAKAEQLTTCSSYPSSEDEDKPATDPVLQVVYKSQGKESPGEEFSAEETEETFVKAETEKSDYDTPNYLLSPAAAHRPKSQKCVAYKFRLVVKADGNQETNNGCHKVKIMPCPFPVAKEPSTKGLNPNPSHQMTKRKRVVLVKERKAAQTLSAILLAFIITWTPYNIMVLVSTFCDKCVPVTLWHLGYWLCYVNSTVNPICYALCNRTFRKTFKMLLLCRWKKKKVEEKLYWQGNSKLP
Method in brief: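 Agonist responses are measured as calcium mobilization in CHO-K1 cells expressing human M3 or M5, tested over an 11-point dose range in triplicate. Percent activity is normalised to carbachol at EC100.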

Row | Structure (SMILES) | M2 FDSS PA [1] [%] | pEC50 [1] | M5 FDSS PA [2] [%] | pEC50 [2]
1 | Fc1cncc(N2CC3(CC[C@@H](N4CCC(c5cc(F)ccc5OC5CCOCC5)CC4)C3)C2)c1 (single isomer, unassigned) [Example 10B, (R)-6-(4-(5-fluoro-2-((tetrahydro-2H-pyran-4-yl)oxy)phenyl)piperidin-1-yl)-2-(5-fluoropyridin-3-yl)-2-azaspiro[3.4]octane or (S)-6-(4-(5-fluoro-2-((tetrahydro-2H-pyran-4-yl)oxy)phenyl)piperidin-1-yl)-2-(5-fluoropyridin-3-yl)-2-azaspiro[3.4]octane] | 31 | 4.84 | 0 | < 4.60
2 | Fc1ccc(C2CCOCC2)c(C2CCN([C@@H]3CCC4(C3)CN(c3cncnc3)C4)CC2)c1 (single isomer, unassigned) [Example 10C, (R)-6-(4-(5-fluoro-2-(tetrahydro-2H-pyran-4-yl)phenyl)piperidin-1-yl)-2-(pyrimidin-5-yl)-2-azaspiro[3.4]octane or (S)-6-(4-(5-fluoro-2-(tetrahydro-2H-pyran-4-yl)phenyl)piperidin-1-yl)-2-(pyrimidin-5-yl)-2-azaspiro[3.4]octane] | 30 | 7.46 | 0 | < 4.60
3 | Fc1ccc(C2CCOCC2)c(C2CCN([C@@H]3CCC4(C3)CN(c3cncnc3)C4)CC2)c1 (single isomer, unassigned) [Example 10D, (R)-6-(4-(5-fluoro-2-(tetrahydro-2H-pyran-4-yl)phenyl)piperidin-1-yl)-2-(pyrimidin-5-yl)-2-azaspiro[3.4]octane or (S)-6-(4-(5-fluoro-2-(tetrahydro-2H-pyran-4-yl)phenyl)piperidin-1-yl)-2-(pyrimidin-5-yl)-2-azaspiro[3.4]octane] | 11 | 6.30 | 0 | < 4.60
4 | Fc1ccc(OC2CC3(COC3)C2)c(C2CCN([C@@H]3CCC4(C3)CN(c3cncnc3)C4)CC2)c1 (single isomer, unassigned) [Example 10E, (R)-6-(4-(2-((2-oxaspiro[3.3]heptan-6-yl)oxy)-5-fluorophenyl)piperidin-1-yl)-2-(pyrimidin-5-yl)-2-azaspiro[3.4]octane or (S)-6-(4-(2-((2-oxaspiro[3.3]heptan-6-yl)oxy)-5-fluorophenyl)piperidin-1-yl)-2-(pyrimidin-5-yl)-2-azaspiro[3.4]octane] | 11 | 5.40 | 0 | < 4.60
5 | Fc1ccc(OC2CC3(COC3)C2)c(C2CCN([C@@H]3CCC4(C3)CN(c3cncnc3)C4)CC2)c1 (single isomer, unassigned) [Example 10F, (R)-6-(4-(2-((2-oxaspiro[3.3]heptan-6-yl)oxy)-5-fluorophenyl)piperidin-1-yl)-2-(pyrimidin-5-yl)-2-azaspiro[3.4]octane or (S)-6-(4-(2-((2-oxaspiro[3.3]heptan-6-yl)oxy)-5-fluorophenyl)piperidin-1-yl)-2-(pyrimidin-5-yl)-2-azaspiro[3.4]octane] | 0 |  | 0 | < 4.60
6 | Fc1ccc(OC2CCOCC2)c(C2CCN([C@@H]3CCC4(C3)CN(c3cncnc3)C4)CC2)c1 (single isomer, unassigned) [Example 10G, (R)-6-(4-(5-fluoro-2-((tetrahydro-2H-pyran-4-yl)oxy)phenyl)piperidin-1-yl)-2-(pyrimidin-5-yl)-2-azaspiro[3.4]octane or (S)-6-(4-(5-fluoro-2-((tetrahydro-2H-pyran-4-yl)oxy)phenyl)piperidin-1-yl)-2-(pyrimidin-5-yl)-2-azaspiro[3.4]octane] | 0 |  | 0 | < 4.60
7 | Fc1ccc(OC2CCOCC2)c(C2CCN([C@@H]3CCC4(C3)CN(c3cncnc3)C4)CC2)c1 (single isomer, unassigned) [Example 10H, (R)-6-(4-(5-fluoro-2-((tetrahydro-2H-pyran-4-yl)oxy)phenyl)piperidin-1-yl)-2-(pyrimidin-5-yl)-2-azaspiro[3.4]octane or (S)-6-(4-(5-fluoro-2-((tetrahydro-2H-pyran-4-yl)oxy)phenyl)piperidin-1-yl)-2-(pyrimidin-5-yl)-2-azaspiro[3.4]octane] | 0 |  | 0 | < 4.60
8 | COc1ccccc1C1CCN([C@H]2CCC3(C2)CN(c2ncco2)C3)CC1 (single isomer, unassigned) [Example 10I, S)-2-(6-(4-(2-methoxyphenyl)piperidin-1-yl)-2-azaspiro[3.4]octan-2-yl)oxazole or (R)-2-(6-(4-(2-methoxyphenyl)piperidin-1-yl)-2-azaspiro[3.4]octan-2-yl)oxazole] | 0 |  | 0 | < 4.60
9 | COc1ccccc1C1CCN([C@H]2CCC3(C2)CN(c2ncco2)C3)CC1 (single isomer, unassigned) [Example 10J, (S)-2-(6-(4-(2-methoxyphenyl)piperidin-1-yl)-2-azaspiro[3.4]octan-2-yl)oxazole or (R)-2-(6-(4-(2-methoxyphenyl)piperidin-1-yl)-2-azaspiro[3.4]octan-2-yl)oxazole] | 42 |  | 0 | 4.85
10 | FC(F)(F)Oc1ccccc1C1CCN([C@@H]2CCC3(C2)CN(c2ncco2)C3)CC1 (single isomer, unassigned) [Example 10K, (R)-2-(6-(4-(2-(trifluoromethoxy)phenyl)piperidin-1-yl)-2-azaspiro[3.4]octan-2-yl)oxazole or (S)-2-(6-(4-(2-(trifluoromethoxy)phenyl)piperidin-1-yl)-2-azaspiro[3.4]octan-2-yl)oxazole] | 0 |  | 0 | < 4.60
11 | FC(F)(F)Oc1ccccc1C1CCN([C@@H]2CCC3(C2)CN(c2ncco2)C3)CC1 (single isomer, unassigned) [Example 10L, (R)-2-(6-(4-(2-(trifluoromethoxy)phenyl)piperidin-1-yl)-2-azaspiro[3.4]octan-2-yl)oxazole or (S)-2-(6-(4-(2-(trifluoromethoxy)phenyl)piperidin-1-yl)-2-azaspiro[3.4]octan-2-yl)oxazole] | 44 | 4.88 | 2 | < 4.60
12 | FC(F)(F)Oc1ccccc1C1CCN([C@@H]2CCC3(C2)CN(c2nncs2)C3)CC1 (single isomer, unassigned) [Example 10M, (R)-2-(6-(4-(2-(trifluoromethoxy)phenyl)piperidin-1-yl)-2-azaspiro[3.4]octan-2-yl)-1,3,4-thiadiazole or (S)-2-(6-(4-(2-(trifluoromethoxy)phenyl)piperidin-1-yl)-2-azaspiro[3.4]octan-2-yl)-1,3,4-thiadiazole] | 0 | < 4.60 | 0 | < 4.60
13 | FC(F)(F)Oc1ccccc1C1CCN([C@@H]2CCC3(C2)CN(c2nncs2)C3)CC1 (single isomer, unassigned) [Example 10N, (R)-2-(6-(4-(2-(trifluoromethoxy)phenyl)piperidin-1-yl)-2-azaspiro[3.4]octan-2-yl)-1,3,4-thiadiazole or (S)-2-(6-(4-(2-(trifluoromethoxy)phenyl)piperidin-1-yl)-2-azaspiro[3.4]octan-2-yl)-1,3,4-thiadiazole] | 28 |  | 0 | < 4.60
